The values that follow come from publication PMC9298201, “4‐Sulfamoylphenylalkylamides as Inhibitors of Carbonic Anhydrases Expressed in Vibrio cholerae” (Chemmedchem, 2021).

“And” between values parts separate entries of the source, which are not always exact repeats. Equal entries are not always repeated. Where two headings read alike, the source gives them in different places.

The target of data set [1] is T1, hCA I (Homo sapiens, UniProt P00915).
T1 construct: made in house
Kind of data set: stopped-flow CO2 hydrase assay, hCA I. It counts as biochemical. The method, then: (§1) The uncatalyzed rates were determined in the same manner and subtracted from the total observed rates.

The target in data set [2] is VchCAγ (Vibrio cholerae, UniProt Q9KVT1). Description: stopped-flow CO2 hydrase assay, VchCAγ. Format: biochemical.
Sequence of VchCAγ (Q9KVT1 1-184): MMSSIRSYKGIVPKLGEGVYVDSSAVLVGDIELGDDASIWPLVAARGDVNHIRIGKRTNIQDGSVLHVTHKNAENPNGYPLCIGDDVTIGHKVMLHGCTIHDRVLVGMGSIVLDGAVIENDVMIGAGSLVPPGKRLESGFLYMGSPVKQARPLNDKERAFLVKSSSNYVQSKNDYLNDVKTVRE
For data set [3], the target named is VchCAβ (Vibrio cholerae, UniProt A0A086SLX8). Kind of data set: biochemical.
Sequence of VchCAβ (A0A086SLX8 entry or part of it): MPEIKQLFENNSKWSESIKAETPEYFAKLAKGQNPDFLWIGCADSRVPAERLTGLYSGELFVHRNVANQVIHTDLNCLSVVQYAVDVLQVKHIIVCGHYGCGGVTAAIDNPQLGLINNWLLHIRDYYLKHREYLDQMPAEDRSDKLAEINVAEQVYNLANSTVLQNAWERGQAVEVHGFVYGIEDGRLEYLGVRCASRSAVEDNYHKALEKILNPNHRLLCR
In data set [4] the target is VchCAα (Vibrio cholerae, UniProt Q9KMP6). Description: stopped-flow CO2 hydrase assay, VchCAα. It counts as biochemical.
Sequence of VchCAα (Q9KMP6 entry or part of it): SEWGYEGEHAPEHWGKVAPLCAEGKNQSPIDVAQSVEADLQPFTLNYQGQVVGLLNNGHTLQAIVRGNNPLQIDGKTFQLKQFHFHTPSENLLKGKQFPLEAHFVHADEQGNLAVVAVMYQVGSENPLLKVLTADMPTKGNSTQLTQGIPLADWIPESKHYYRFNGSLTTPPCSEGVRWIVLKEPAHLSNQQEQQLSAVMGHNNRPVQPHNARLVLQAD
Data set [5] deals with T2, hCA II (Homo sapiens, UniProt P00918).
T2 construct: made in house
Description: stopped-flow CO2 hydrase assay, hCA II. Format: biochemical. The conditions noted are these: errors ±10 %, three assays. The method, then:
as §1

In data set [6] the test system is Vibrio cholerae. On the set-up: method as in PMID 26235676, PMID 27283786, PMID 23488877. The conditions noted are these: thus reducing the growth rates of pathogen; cited from earlier work.

T1 sequence (P00915 whole entry): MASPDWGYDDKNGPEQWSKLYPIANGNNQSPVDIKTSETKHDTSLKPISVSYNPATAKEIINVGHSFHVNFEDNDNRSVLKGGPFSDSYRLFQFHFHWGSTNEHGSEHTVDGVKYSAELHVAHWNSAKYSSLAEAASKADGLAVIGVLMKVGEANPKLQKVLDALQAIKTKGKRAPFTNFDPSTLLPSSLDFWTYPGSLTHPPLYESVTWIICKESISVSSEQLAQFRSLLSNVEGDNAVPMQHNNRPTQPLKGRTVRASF

`C[C@H](N)C(=O)Nc1ccc(S(N)(=O)=O)cc1` [compound 11, (S)‐2‐Amino‐N‐(4‐sulfamoylphenyl)propanamide] returned a melting point of 216 to 217 °C. In addition, in data set [1], the Ki worked out at 869 nM. The compound also gave a Ki in data set [2] of 23.7 nM. Further, the affinity in data set [3], expressed as Ki, was 381 nM. The same compound showed a Ki in data set [4] of 35.7 nM. In addition, the affinity in data set [5] corresponds to a Ki of 383 nM.

`C[C@H](NC(=O)c1ccccc1)C(=O)NCc1ccc(S(N)(=O)=O)cc1` [compound 37, (S)‐N‐(1‐Oxo‐1‐((4‐sulfamoylbenzyl)amino)propan‐2‐yl)benzamide] returned a melting point of 178 to 180 °C. The compound also came in with a Ki in data set [1] of 722 nM. Affinity in data set [2] was put at a Ki of 261 nM. The compound also showed a Ki in data set [3] of 93.3 nM. In data set [4], this compound returned a Ki of 56.5 nM. The compound also gave a Ki in data set [5] of 302 nM.

`NS(=O)(=O)c1ccc(NC(=O)CNC(=O)c2ccc(Cl)cc2)cc1` [compound 22, 4‐Chloro‐N‐(2‐oxo‐2‐((4‐sulfamoylphenyl)amino)ethyl)benzamide] registered a melting point of 226 to 228 °C. The same compound came in with a Ki in data set [1] of 81.3 nM. In data set [2], the affinity, expressed as Ki, was 282 nM. In data set [3], this compound registered a Ki of 59.7 nM. This compound gave an inhibition constant (Ki) in data set [4] of 9.6 nM. Further, the Ki in data set [5] was determined as 3.3 nM.

For the compound `NCC(=O)Nc1ccc(S(N)(=O)=O)cc1` [compound 10, 2‐amino‐N‐(4‐sulfamoylphenyl)acetamide], the Ki in data set [2] (stopped-flow CO2 hydrase assay, errors ±10 %, three assays, read-out: Ki VchCA γ) amounted to 744 nM; in data set [3], 3170 nM; in data set [4], 8 nM.

Turning to `CC(C)[C@H](N)C(=O)Nc1ccc(S(N)(=O)=O)cc1` [compound 12, (S)‐2‐amino‐3‐methyl‐N‐(4‐sulfamoylphenyl)butanamide], the Ki in data set [1] is 609 nM; in data set [2], 88.6 nM; in data set [3], 362 nM; in data set [4] it was 659 nM; in data set [5] it was 183 nM.

`NS(=O)(=O)c1ccc(NC(=O)CNC(=O)c2cccs2)cc1` [compound 32, N‐(2‐Oxo‐2‐((4‐sulfamoylphenyl)amino)ethyl)thiophene‐2‐carboxamide] registered a melting point of 265 to 267 °C. In data set [1], this compound came in with a Ki of 430 nM. In addition, the Ki in data set [2] was 6020 nM. Moreover, in data set [3], the Ki was 636 nM. The compound also displayed an inhibition constant (Ki) in data set [4] of 4.8 nM. The Ki in data set [5] turned out to be 38.5 nM.

`NS(=O)(=O)c1ccc(NC(=O)CNC(=O)c2cccc(Cl)c2)cc1` [compound 21, 3‐Chloro‐N‐(2‐oxo‐2‐((4‐sulfamoylphenyl)amino)ethyl)benzamide] came in with a melting point of 262 to 264 °C. This compound also came in with a Ki in data set [1] of 127 nM. The affinity in data set [2], expressed as Ki, was 364 nM. The same compound registered a Ki in data set [3] of 82.8 nM. For the same compound, in data set [4], the Ki amounted to 18.5 nM. In data set [5], the Ki worked out at 14.7 nM.

`C[C@H](NC(=O)c1cccs1)C(=O)NCc1ccc(S(N)(=O)=O)cc1` [compound 43, (S)‐N‐(1‐Oxo‐1‐((4‐sulfamoylbenzyl)amino)propan‐2‐yl)thiophene‐2‐carboxamide]: the melting point was 221 to 223 °C. The Ki in data set [1] is 651 nM. The same compound gave an inhibition constant (Ki) in data set [2] of 93.2 nM. The compound further displayed a Ki in data set [3] of 691 nM. The same compound showed a Ki in data set [4] of 63.1 nM. For the same compound, the Ki in data set [5] is 71.1 nM.

With `NS(=O)(=O)c1ccc(CNC(=O)CNC(=O)c2ccccc2)cc1` [compound 36, N‐(2‐Oxo‐2‐((4‐sulfamoylbenzyl)amino)ethyl)benzamide], the melting point is 211 to 213 °C. The compound further registered an inhibition constant (Ki) in data set [1] of 754 nM. The Ki in data set [2] is 230 nM. For the same compound, the Ki in data set [3] came out at 82.8 nM. Further, the inhibition constant Ki in data set [4] turned out to be 8.2 nM. This compound gave an inhibition constant (Ki) in data set [5] of 368 nM.

With `NS(=O)(=O)c1ccc(NC(=O)CNC(=O)c2ccccc2Cl)cc1` [compound 20, 2‐Chloro‐N‐(2‐oxo‐2‐((4‐sulfamoylphenyl)amino)ethyl)benzamide], the melting point lay in the range of 249 to 251 °C. In data set [1], the affinity corresponds to a Ki of 564 nM. The compound also showed a Ki in data set [2] of 8930 nM. This compound showed an inhibition constant (Ki) in data set [3] of 796 nM. The same compound displayed a Ki in data set [4] of 8.9 nM. The compound further came in with a Ki in data set [5] of 29.6 nM.

The compound `NS(=O)(=O)c1ccc(CNC(=O)CNC(=O)c2cccs2)cc1` [compound 42, N‐(2‐Oxo‐2‐((4‐sulfamoylbenzyl)amino)ethyl)thiophene‐2‐carboxamide] displayed a melting point of 220 to 222 °C. This compound had a Ki in data set [1] of 828 nM. This compound also yielded a Ki in data set [2] of 244 nM. In data set [3], this compound registered a Ki of 627 nM. Moreover, the Ki in data set [4] was determined as 9.3 nM. The same compound registered a Ki in data set [5] of 87.3 nM.

In turn, `CC(C)[C@H](NC(=O)c1ccccc1)C(=O)NCc1ccc(S(N)(=O)=O)cc1` [compound 38, (S)‐N‐(3‐Methyl‐1‐oxo‐1‐((4‐sulfamoylbenzyl)amino)butan‐2‐yl)benzamide] showed a melting point of 213 to 215 °C. In data set [1], this compound displayed a Ki of 505 nM. The same compound showed a Ki in data set [2] of 332 nM. In data set [3], this compound had a Ki of 94.6 nM. The compound further gave a Ki in data set [4] of 37.6 nM. This compound also displayed a Ki in data set [5] of 170 nM.

For the compound `NS(=O)(=O)c1ccc(CNC(=O)CNC(=O)c2ccco2)cc1` [compound 39, N‐(2‐Oxo‐2‐((4‐sulfamoylbenzyl)amino)ethyl)furan‐2‐carboxamide], the Ki was 1440 nM in data set [1]; 734 nM in data set [2]; 394 nM in data set [3]; 35.7 nM in data set [4]; 316 nM in data set [5].

The compound `NS(=O)(=O)c1ccc(NC(=O)CNC(=O)c2ccccc2)cc1` [compound 13, (S)‐N‐(2‐Oxo‐2‐((4‐sulfamoylphenyl)amino)ethyl)benzamide] had a melting point of 214 to 216 °C. This compound yielded a Ki in data set [1] of 524 nM. The compound further came in with a Ki in data set [2] of 563 nM. Besides, the affinity in data set [3] corresponds to a Ki of 884 nM. The Ki in data set [4] is 0.4 nM. Besides, the inhibition constant (Ki) in data set [5] worked out at 19.9 nM.

With `CC(C)[C@H](NC(=O)c1cccs1)C(=O)NCc1ccc(S(N)(=O)=O)cc1` [compound 44, (S)‐N‐(3‐Methyl‐1‐oxo‐1‐((4‐sulfamoylbenzyl)amino)butan‐2‐yl)thiophene‐2‐carboxamide], the melting point was in the range of 144 to 146 °C. The compound also displayed a Ki in data set [1] of 94.9 nM. In data set [2], this compound yielded a Ki of 84.8 nM. In data set [3], this compound came in with a Ki of 94.4 nM. The inhibitory constant (Ki) in data set [4] stood at 30.5 nM. Besides, the Ki in data set [5] turned out to be 18.4 nM.

On to `C[C@H](NC(=O)c1ccccc1)C(=O)Nc1ccc(S(N)(=O)=O)cc1` [compound 14, (S)‐N‐(1‐oxo‐1‐((4‐sulfamoylphenyl)amino)propan‐2‐yl)benzamide], for which the melting point was 260 to 261 °C. The Ki in data set [1] is 46.1 nM. The compound further had a Ki in data set [2] of 80.5 nM. In addition, the Ki in data set [3] is 3000 nM. The Ki in data set [4] is 9.5 nM. In data set [5], this compound registered a Ki of 4.4 nM.

`CC(C)[C@H](NC(=O)c1ccccc1)C(=O)Nc1ccc(S(N)(=O)=O)cc1` [compound 15, (S)‐N‐(3‐methyl‐1‐oxo‐1‐((4‐sulfamoylphenyl)amino)butan‐2‐yl)benzamide] gave a melting point of 279 to 280 °C. In data set [1], this compound returned a Ki of 51.5 nM. In data set [2], this compound registered a Ki of 24.3 nM. The affinity in data set [3] corresponds to a Ki of 389 nM. For the same compound, the inhibition constant (Ki) in data set [4] is 9.2 nM. This compound also yielded a Ki in data set [5] of 3.7 nM.

As for `CC(C)[C@H](NC(=O)c1ccco1)C(=O)NCc1ccc(S(N)(=O)=O)cc1` [compound 41, (S)‐N‐(3‐Methyl‐1‐oxo‐1‐((4‐sulfamoylbenzyl)amino)butan‐2‐yl)furan‐2‐carboxamide], the melting point was 226 to 228 °C. The compound also returned an inhibitory constant (Ki) in data set [1] of 215 nM. Moreover, in data set [2], the Ki came out at 95.3 nM. The compound also came in with a Ki in data set [3] of 707 nM. This compound returned a Ki in data set [4] of 97.8 nM. The compound also yielded an inhibition constant (Ki) in data set [5] of 19.6 nM.

Consider `C[C@H](NC(=O)c1ccco1)C(=O)NCc1ccc(S(N)(=O)=O)cc1` [compound 40, (S)‐N‐(1‐Oxo‐1‐((4‐sulfamoylbenzyl)amino)propan‐2‐yl)furan‐2‐carboxamide], for which the Ki in data set [1] is 6280 nM; in data set [2], 92.8 nM; in data set [3] it was 612 nM; in data set [4], 8.5 nM; in data set [5], 6100 nM and 6090 nM. Moreover, the “fold more selective (VchCAγ) over hCA I” value in data set [2] (selectivity VchCAγ vs hCA I) was around 70 fold. For the same compound, the “fold more selective (VchCAγ) over hCA II” value in data set [2] (selectivity VchCAγ vs hCA II) was around 70 fold. Moreover, the “fold more active against VchCAα over hCA I” value in data set [4] (selectivity VchCAα vs hCA I) is given as around 730 fold.

Turning to `CCOc1ccc2nc(S(N)(=O)=O)sc2c1` [EZA, ethoxzolamide], in data set [6], the “effect on bicarbonate mediated virulence gene induction” value is given as “suppressed bicarbonate mediated virulence gene induction”.

The compound `NS(=O)(=O)c1ccc(NC(=O)CNC(=O)c2ccco2)cc1` [compound 31, N‐(2‐Oxo‐2‐((4‐sulfamoylphenyl)amino)ethyl)furan‐2‐carboxamide] had a melting point of 238 to 240 °C. This compound showed a Ki in data set [1] of 621 nM. The compound also yielded a Ki in data set [2] of 7750 nM. For the same compound, the affinity in data set [3] corresponds to a Ki of 460 nM. Besides, the inhibition constant (Ki) in data set [4] was found to be 6.8 nM. Moreover, in data set [5], affinity was put at a Ki of 22.2 nM.

Usually Ki stands for a dissociation constant, usually derived from enzyme kinetics or from competition with a known ligand. One may read the melting point as the temperature, or range, at which the solid turns liquid.
